US11672786B2, “Methods of treating diseases associated with repeat instability” (The Hospital for Sick Children, priority 2016, dated 2023)
Where “and” joins values, the source holds several entries; their conditions need not be identical. Identical values can stand only once.

Columns and labels:
CAG-CAG = settings: cited from earlier work
[1] = test system: Huntington's disease R6/2 transgenic mice, striatum; experiment: stereotaxic intra-striatal injections into R6/2 mice, CAG length Genescan analysis and instability index; type: in vivo, mouse
Description: This calculation corrects background using a relative height threshold and normalizes data efficiently, generating an “instability index” that represents the mean CAG length change from the main allele per cell in a population of cells: greater indices reflect greater expansions, lower indices-lower expansions.
Mouse handling and experimental procedures were conducted in accordance with the Osaka University guidelines for the welfare of animals. A single drug application involved six separate stereotactic injections, three injections of drug or saline into three different striatal regions of either the left or right striatum, respectively (outlined in FIG. 24). Under sterile conditions, 6-week-old R6/2 mice were anesthetized with 50 mg/kg pentobarbital sodium, and stereotaxically injected with 5 μl of saline (right side) or 500 μM NA dissolved in saline (left side) into three different sites of the striatum. The mice received injections once or twice bi-weekly, or weekly for 4 consecutive weeks. Stereotaxic injections were delivered to three sites within the striatum with the following coordinates: (anterior-posterior (AP)=0.0 mm, medial-lateral (ML)=1.5 mm from bregma, dorsal-ventral (DV)=2.5 mm below the dural surface; AP=1.0 mm, ML=1.5 mm, DV=2.5 mm; and AP=0.5 mm, ML=1.5 mm, DV=2.5 mm), using a 10-μl Hamilton microsyringe at a rate of 0.5 μL/min. Refer to FIG. 24 outlining dosing regimen. […] The control of our NA treatment is therefore the contralateral side of the striatum of each mouse. Both right and left striatum were assessed for repeat length at the HD CAG transgene and at endogenous, long CAG tracts. For the mice treated four times, DNAs from the tail prior to and following NA administration, as well as left and right frontal cortex and left and right cerebellum were harvested.
At 4 weeks after the first injection, DNA was isolated from mouse brain tissue as previously described (Nakamori et al. 2009, Neuromuscul. Disord., 19:759-62). PCR was performed as described previously (Tome et al., 2013, PLoS Genet., 9:e1003280), and PCR products were sized on an ABI310 Gene Analyser using […] 3.1 software (Life Technologies).
The procedure for instability index calculation was done as previously described (Lee et al., 2010, BMC Syst. Biol., 4:29) and is illustrated and outlined in FIG. 27A.

HT1080-(CAG)850 cells = experiment: small-pool PCR repeat instability, proliferating HT1080-(CAG)850 cells producing rCAG transcript; type: cell-based, human; settings: 30 days; for % Contraction / % Expansion: cut-off ±25 repeats
Description: The construction of the HT1080-(CAG)850 cell model was described previously (Sathasivam et al., 1997, Hum. Genet., 99:692-5). Briefly, HT1080 (ATCC) human fibrosarcoma cells were co-transfected with a plasmid (LC15-R) containing 800-850 (CTG)●(CAG) repeats (Nakatani et al., 2005, Nat. Chem. Biol., 1:39-43) and a plasmid encoding PhiC31 integrase. Transfection was performed with a Nucleofector (Lonza, Basel, Switzerland), and stably transfected clones were selected with puromycin. […] The HT1080-non-transcribing (CAG)850 cell model was established by transfecting a plasmid modified from pLC16 by inserting an additional SV40 polyadenylation signal downstream of the repeats (in addition to the original polyadenylation signals located upstream of the repeats), so that CAG/CTG repeats are floxed by transcription-terminator elements. The AttB-PhiC31 system has been widely used for single copy integration. […] The HT1080 model cells and an HD primary fibroblast cell line, GM09197 (Coriell Biorepository) with a large expanded allele of 180 CAG repeats and a non-expanded allele of 23 repeats (Sathasivam et al., 1997, Hum. Genet., 99:[…]), the HD primary fibroblast cell line, GM02191 (Coreill Biorepository) with an expanded allele of 43 CAG repeats and a non-expanded allele of 19 repeats, were cultured at 37° C. with 5% CO2 in Dulbecco's modified Eagle's medium supplemented with 10% fetal bovine serum and 1% penicillin/streptomycin. Cells were treated with or without continuous exposure to 50-μM NA for 30 days (HT1080 cells) or for 40 days (fibroblast cells). For experiments on non-proliferating cells, HT1080 cells were grown to confluence and then treated for the same period. WST-1 assay was performed according to the manufacturer's instructions (Roche, Basel, Switzerland). All cell lines were tested to be free of Mycoplasma. Three biological replicates were performed for each experiment.
Genomic DNA was extracted from HT1080-(CAG)850 clones and HD primary fibroblasts using the Gentra Puregene Cell Kit (Qiagen, Valencia, Calif.). The expanded (CTG)●(CAG) repeats were sized by small-pool PCR (sp-PCR) followed by Southern blot as described previously (Sathasivam et al., 1997, Hum. Genet., 99:692-5). For HT1080 models, small-pool PCR (spPCR) was performed with the input of 1.4-1.7 genome equivalents. The repeat size difference in the models is, at most, 3000 base-pairs, therefore, being strictly conservative, a bias toward amplifying the shorter allele can be possible, even under optimized PCR conditions described herein. For HD primary fibroblasts, sp-PCR & Southern blots were performed as described previously with slight modifications (Tome et al., 2013, PLoS Genet., 9:e1003280). Briefly, the PCR primers listed in Table 1 were used, and blots were hybridized with a DIG-labeled (CAG)7 locked nucleic acid probe (Nakamori et al. 2009, Neuromuscul. Disord., 19:759-62). At least 50 alleles were analyzed for each of the three experiments (more than 150 alleles for a total study). Repeat analyses are summarized in Table 2, compiled from complete small-pool-PCR datasets for each repetition of each experiment. For the histograms in FIGS. 4D, 4E, 10, 11, 5B, 5D, 5E, 14 and 15B, the Y-axis, “% of repeat population” was calculated by determining the proportion of >50 individual small-pool PCR reactions across the CAG repeat tract, that harbored a certain size of repeat product with a certain length. Cell clones were grown 30 or 40 days with or without NA (see, for example, Sathasivam et al., 1997, Hum. Genet., 99:692-5). Specifically, the histograms of repeat length distributions were from at least two different cell clones. Length distributions were determined as follows: Small-pool PCR followed by Southern blot for analysis of CAG/CTG repeat length.

[2] = 50 uM NA, Total of 3 experiments
[3] = 50 uM NA, single experiments Ex 1-3

naphthyridine-azaquinolone
affinity of each NA molecule/CAG-CAG as Ka (CAG-CAG; estimated): 1.8e+06 M⁻¹ | Kd (CAG-CAG; estimated, read-out: affinity of each NA molecule/CAG-CAG as Kd): 560 nM | ratio of NA molecules to 1 CAG-CAG (CAG-CAG; previously estimated binding stoichiometry): 2 | instability index of striatum ([1]; 1, 2 and 4 administrations): progressively reduced | effect on expanded repeat relative to saline-injected contralateral striatum ([1]; 6-week-old R6/2 mice, repeated intra-striatal injections over four weeks): led to seeming contractions of the expanded repeat | extrapolated repeat contraction in an HD-affected human ([1]; extrapolation from mice, treatments spanning one year): 5-25 repeats | difference of main peak CAG lengths saline- versus NA-treated versus tail ([1]; four injections, 500 μM NA intra-striatal): 4-7 CAG units | CAG length heterogeneity in cerebral cortex and cerebellum (non-injected tissues) ([1]; intra-striatal injections, left versus right side): identical patterns of CAG length heterogeneity in the right and left sides | rate of contractions in striatal neurons ([1]; mice with about 150 CAG repeats, four-week period of NA treatment, 500 μM intra-striatal): ~0.5 repeats lost/week | magnitude of repeat units lost (greatest) (HT1080-(CAG)850 cells; 50 μM NA): ≤ 790 repeats | % Unchanged (HT1080-(CAG)850 cells; [2]): 26.7% | Average Change of Repeat Size (HT1080-(CAG)850 cells; 50 uM NA, Total of 3 experiments, all alleles): −125.7 number of repeats | % Contraction (HT1080-(CAG)850 cells; [2]): 59.4% | % Expansion (HT1080-(CAG)850 cells; [2]): 13.9% | % Unchanged (HT1080-(CAG)850 cells; [3]): 28.4% and 27.4% and 23.7% | % Contraction (HT1080-(CAG)850 cells; [3]): 56.8% and 60.0% and 61.0% | % Expansion (HT1080-(CAG)850 cells; [3]): 14.8% and 11.3% and 15.2%
